pEC50: −log10 of the molar value.
Key:
Type in all cases: cell-based
HCT-15 cells = assay: Cell viability (CellTiterGlo), single agent, 120 h; settings: Homo sapiens, HCT-15, BRAF WT, 5 day assay
Experimental: (§1) For drug studies, HCT116, HT-29, RKO, HCT-15, SW1116, SW480 and SW620 cells were seeded at a density of 750, 8000, 300, 480, 1600, 2000, and 2000 cells per well, respectively, into 96 well plates in a final volume of 50 μL.
(§2) The apilimod used in these studies was apilimod dimesylate.
(§3) All drug dilutions were made up as a 2× stock and 50 μL added to appropriate wells. Cells were treated for 120 h before viability was assessed using CellTiterGlo® (Promega) where the relative luminescence of untreated cells was set to 100% viability and each drug concentration expressed as a percentage of untreated cells. EC50 values were determined using GraphPad Prism (GraphPad Software, Inc). Briefly, raw data was log transformed and then analyzed using nonlinear regression (curve fit) where the data were constrained (bottom=0, top=100).

HCT116 cells = assay: Cell viability (CellTiterGlo), single agent, 120 h; settings: Homo sapiens, HCT-116, 120 h; HCT116, BRAF WT, 5 day assay
Experimental: as §1, §2, §3

HT-29 cells = assay: Cell viability (CellTiterGlo), single agent, 120 h; settings: Homo sapiens, HT-29, BRAF Mutant (V600E), 5 day assay
Experimental: as §1, §2, §3

RKO cells = assay: Cell viability (CellTiterGlo), single agent, 120 h; settings: Homo sapiens, BRAF Mutant (V600E), 5 day assay
Experimental: as §1, §2, §3

SW1116 cells = assay: Cell viability (CellTiterGlo), single agent, 120 h; settings: Homo sapiens, SW 1116, 120 h; SW1116, BRAF WT, 5 day assay
Experimental: as §1, §2, §3

SW480 cells = assay: Cell viability (CellTiterGlo), single agent, 120 h; settings: Homo sapiens, SW480, BRAF WT, 5 day assay
Experimental: as §1, §2, §3

SW620 cells = assay: Cell viability (CellTiterGlo), single agent, 120 h; settings: Homo sapiens, SW-620, 120 h; SW620, BRAF WT, 5 day assay
Experimental: as §1, §2, §3

colon cancer cell lines = assay: LAM-002 sensitivity (EC90) correlated with SNX10 expression; settings: 10 point dose response
Source text: Expression profiles were obtained from the public databases CCLE (Barretina, Caponigro, Stransky et al. The Cancer Cell Line Encyclopedia enables predictive modelling of anticancer drug sensitivity. Nature. 2012 Mar. 28; 483(7391):603-7) and COSMIC (Forbes SA1, Beare D2, Gunasekaran P2, et al. COSMIC: exploring the world's knowledge of somatic mutations in human cancer. Nucleic Acids Res. 2015 January; 43 (Database issue):D805-11). R statistical package (R Development Core Team (2008). R: A language and environment for statistical computing. R Foundation for Statistical Computing, Vienna, Austria. ISBN 3-900051-07-0) was used for the normalization of expression and the correlation analysis.
To determine LAM-002 sensitivity in colon cancer cell lines, the EC90 was calculated using a 10 point dose response as described above for EC50 determination. […] These findings support SNX10 expression as a predictive biomarker for LAM-002 sensitivity in colon cancer cells.

pEC50 (HCT-15 cells): 7.82
pEC50 (HCT116 cells): 8.00
pEC50 (HT-29 cells): 7.72
pEC50 (SW1116 cells): 7.92
pEC50 (SW480 cells): 7.62
pEC50 (SW620 cells): 8.05
SMILES: Cc1cccc(/C=N/Nc2cc(N3CCOCC3)nc(OCCc3ccccn3)n2)c1 [Apilimod]
pEC50 (RKO cells): 7.28
correlation between SNX10 expression and LAM-002 sensitivity (EC90) (colon cancer cell lines): colon cancer cells expressing higher levels of SNX10 are the most sensitive to LAM-002

Reference: patent publication US20190209576A1 (AI Therapeutics, Inc., priority 2014, published 2019)
